Data from patent US20250325677A1, “STAT6 DEGRADERS” (Gilead Sciences, Inc., priority 2024, published 2025).

Assays:
STAT6 [1] = target: T1, STAT6 (Homo sapiens (Human), UniProt P42226); test: Surface plasmon resonance assay; format: binding; details: truncated human STAT6 aa122-658, 25° C.; read-out: STAT6 SPR Kd
Experimental: Surface Plasmon Resonance Assay
SPR was used to confirm and quantify binding of compounds to human STAT6. Biacore instruments from the 8K-series (Cytiva) were used, and measurements were performed at 25° C. Human STAT6 (truncated, aa122-658, with N-terminal His-tag, expressed in insect cells) was immobilized in the active flow cells on a CM5 chip using amine-coupling (default settings) at 10 μg/ml in 10 mM acetate buffer pH 5.5, at a contact time of 120-420 sec. and a flow rate of 10 μl/min. Reference flow cells were deactivated using blank immobilization. PBS-P+(Cytiva) supplemented with 2% DMSO was used as running buffer, and solvent correction was applied. Compounds were tested by multi-cycle kinetics injections using a contact time of 60 sec., dissociation time of up to 300 sec., and a flow rate of 30 μl/min.
Solvent-corrected, reference-subtracted and blank-corrected data was processed and binding isotherms were fitted according to a single report point from each sensorgram (Standard: Late binding (5 sec. before injection end); alternative: Earlier report point according to binding profile). Data fitting was done both with unfixed Rmax and with Rmax fixed to the theoretical value* assuming 1:1 binding to allow processing of data from both weak and strong binders as well as to evaluate binding stoichiometry.
Positive controls were run at the beginning, during, and at the end of the screen to evaluate surface activity. Generally surface activity was only affected to a minor degree, and no corrections were applied. • Equation for calculation of the theoretical Rmax (Theoretical Rmax=(MW Analyte/MW Ligand)×immobilization level).
The sensorgrams for Examples 3e5, 3t4, and 3p1 are shown in FIG. 1 (where RU is plotted vs. time in seconds; dotted lines/points were excluded from the analysis due to effects from non-specific binding)).
Target sequence in this assay (P42226 122-658): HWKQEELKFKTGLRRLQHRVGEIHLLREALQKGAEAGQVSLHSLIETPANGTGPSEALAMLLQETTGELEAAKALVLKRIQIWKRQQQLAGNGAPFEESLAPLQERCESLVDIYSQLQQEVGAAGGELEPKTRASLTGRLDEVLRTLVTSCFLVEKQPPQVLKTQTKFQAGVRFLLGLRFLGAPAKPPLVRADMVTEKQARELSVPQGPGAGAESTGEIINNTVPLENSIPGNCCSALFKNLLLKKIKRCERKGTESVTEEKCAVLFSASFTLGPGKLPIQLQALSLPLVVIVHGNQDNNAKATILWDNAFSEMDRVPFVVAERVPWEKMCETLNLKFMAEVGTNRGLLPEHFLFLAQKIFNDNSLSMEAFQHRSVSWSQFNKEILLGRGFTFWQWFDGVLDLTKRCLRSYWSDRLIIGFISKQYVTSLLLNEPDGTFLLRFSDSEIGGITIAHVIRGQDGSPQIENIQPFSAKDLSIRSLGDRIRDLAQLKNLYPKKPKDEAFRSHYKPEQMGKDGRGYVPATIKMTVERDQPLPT

STAT6 [2] = target: T1, STAT6; test: STAT6 degrader assay (HiBiT, HeLa LgBiT clone 4.14); format: cell-based; details: HeLa LgBiT clone 4.14, 4-24 h; geometric mean; given for compounds with >80% Emax; read-out: STAT6 degradation DC50
Procedure, shortened: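 DC50 (nM) comes from luminescence of non-degraded STAT6 read 0.5 h after Nano-GLO addition, following 4-24 h compound exposure at 37° C. Cells were HeLa clone 4.14 expressing LgBiT with a CRISPR HiBiT tag on endogenous STAT6; 50 μM terfenadine set full degradation.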
Target sequence in this assay (P42226 whole entry, the tested form may be a part): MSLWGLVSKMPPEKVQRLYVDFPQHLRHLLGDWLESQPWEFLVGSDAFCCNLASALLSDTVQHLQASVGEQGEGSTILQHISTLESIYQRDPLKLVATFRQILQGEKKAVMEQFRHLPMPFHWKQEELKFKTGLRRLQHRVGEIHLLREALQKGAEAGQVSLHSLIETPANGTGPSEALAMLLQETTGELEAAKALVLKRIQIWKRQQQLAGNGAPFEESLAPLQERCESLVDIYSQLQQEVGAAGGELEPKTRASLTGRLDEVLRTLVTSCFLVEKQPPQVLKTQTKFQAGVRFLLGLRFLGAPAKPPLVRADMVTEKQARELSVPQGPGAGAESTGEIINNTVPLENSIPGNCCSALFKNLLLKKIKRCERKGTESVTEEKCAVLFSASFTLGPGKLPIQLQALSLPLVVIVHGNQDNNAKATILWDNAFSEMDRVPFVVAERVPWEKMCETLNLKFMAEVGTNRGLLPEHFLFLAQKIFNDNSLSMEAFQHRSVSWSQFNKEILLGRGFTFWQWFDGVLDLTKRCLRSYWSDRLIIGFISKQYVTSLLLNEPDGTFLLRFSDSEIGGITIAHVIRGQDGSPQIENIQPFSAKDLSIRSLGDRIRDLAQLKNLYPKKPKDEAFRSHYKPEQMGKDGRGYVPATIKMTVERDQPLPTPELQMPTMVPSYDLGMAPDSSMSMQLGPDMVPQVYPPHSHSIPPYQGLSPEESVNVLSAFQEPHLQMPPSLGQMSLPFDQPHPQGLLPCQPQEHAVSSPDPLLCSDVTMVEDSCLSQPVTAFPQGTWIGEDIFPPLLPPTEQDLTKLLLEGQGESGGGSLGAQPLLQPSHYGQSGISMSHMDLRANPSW

eotaxin-3 release = test: Human whole blood eotaxin-3 assay (IL-4 stimulated); format: cell-based; details: human whole blood, IL-4 0.4 nM, 48 hours; geometric mean; given for compounds with >80% Emax; read-out: Eotaxin-3 EC50
Procedure, shortened: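 Human whole blood was preincubated with compound for 120 min at 37 °C, then stimulated with recombinant human IL-4 (E. coli) at 0.4 nM final for 48 h. Inhibition of eotaxin-3 release gave EC50 values.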

Row | Structure (SMILES) | Kd (STAT6 [1]) | DC50 (STAT6 [2]) | EC50 (eotaxin-3 release)
1 | Cn1c(CN2CCC(c3ccc(C(=O)N4CCC(CN5CCN(Cc6ccc7c(c6)n(C6CC6)c(=O)n7C6CCC(=O)NC6=O)CC5)CC4)cc3)CC2)cc2c(-c3ccc(N)nc3)ccnc21 (centres unmarked) [Example 3e5, 3-(5-((4-((1-(4-(1-((4-(6-aminopyridin-3-yl)-1-methyl-1H-pyrrolo[2,3-b]pyridin-2-yl)methyl)piperidin-4-yl)benzoyl)piperidin-4-yl)methyl)piperazin-1-yl)methyl)-3-cyclopropyl-2-oxo-2,3-dihydro-1H-benzo[d]imidazol-1-yl)piperidine-2,6-dione] | 104 nM | 5.4 nM | 
2 | Cn1c(CN2CCC(c3ccc(C(=O)N4CCC(CN5CCN(Cc6ccc7c(c6)n(C)c(=O)n7C6CCC(=O)NC6=O)CC5)CC4)cc3)CC2)cc2c(-c3ccc(N)nc3)ccnc21 (centres unmarked) [Example 3e2, 3-(5-((4-((1-(4-(1-((4-(6-aminopyridin-3-yl)-1-methyl-1H-pyrrolo[2,3-b]pyridin-2-yl)methyl)piperidin-4-yl)benzoyl)piperidin-4-yl)methyl)piperazin-1-yl)methyl)-3-methyl-2-oxo-2,3-dihydro-1H-benzo[d]imidazol-1-yl)piperidine-2,6-dione] |  | 4.6 nM | 98.7 nM
3 | CC[C@H]1CN(Cc2ccc3c(c2)n(C2CC2)c(=O)n3[C@H]2CCC(=O)NC2=O)CCN1CC1CCN(C(=O)c2ccc(C3CCN([C@@H](C)c4cc5c(-c6ccc(N)nc6)ccnc5n4C)CC3)cc2)CC1 (single isomer, unassigned) [Example 3e65] |  | 2.6 nM | 5.4 nM

More lines, now with the values ahead:

Row | Kd (STAT6 [1]) | DC50 (STAT6 [2]) | EC50 (eotaxin-3 release) | Structure (SMILES)
4 | 37.8 nM | 0.1 nM |  | Cn1c(CN2CCC(c3ccc(-c4nnc5ccc(N6CCC(CN7CCN(Cc8ccc9c(c8)n(C)c(=O)n9C8CCC(=O)NC8=O)CC7)CC6)nn45)cc3)CC2)cc2c(-c3ccc(N)nc3)ccnc21 (centres unmarked) [Example 3t4, 3-(5-((4-((1-(3-(4-(1-((4-(6-aminopyridin-3-yl)-1-methyl-1H-pyrrolo[2,3-b]pyridin-2-yl)methyl)-piperidin-4-yl)phenyl)-[1,2,4]triazolo[4,3-b]pyridazin-6-yl)piperidin-4-yl)methyl)piperazin-1-yl)methyl)-3-methyl-2-oxo-2,3-dihydro-1H-benzo[d]imidazol-1-yl)piperidine-2,6-dione]
5 | 11.4 nM | 0.1 nM | 1 nM | CN(C(=O)c1ccc(C2CCN(Cc3cc4c(-c5ccc(N)nc5)ccnc4n3C)CC2)cc1)c1ccc(C2CCN(Cc3ccc4c(c3)n(C)c(=O)n4C3CCC(=O)NC3=O)CC2)cc1 (centres unmarked) [Example 3p1, 4-(1-((4-(6-aminopyridin-3-yl)-1-methyl-1H-pyrrolo[2,3-b]pyridin-2-yl)methyl)piperidin-4-yl)-N-(4-(1-((1-(2,6-dioxopiperidin-3-yl)-3-methyl-2-oxo-2,3-dihydro-1H-benzo[d]imidazol-5-yl)methyl)-piperidin-4-yl)phenyl)-N-methylbenzamide]
